Measurements: US20210332320A1, “ANTIMICROBIC SUSCEPTIBILITY TESTING USING MACHINE LEARNING” (Beckman Coulter, Inc., priority 2018, published 2021)

Key:
Assay type in all cases: cell-based
E. coli bacteria = assay: Digital microscopy of E. coli bacteria exposed to antibiotic dilution (elongation); details: FIG. 17 versus unexposed FIG. 18
Excerpt: Data extraction step 117 may be configured to derive information regarding the ratio between the total count of microbes and the total area occupied by all of the microbes in the image. This information may be useful in determining whether the microbes are undergoing elongation over time. Elongation is a precursor to death and indicates the concentration of the antimicrobic dilution is negatively affecting the microbes. More specifically, elongation may occur when microbes such as bacteria encounter an effective amount of antibiotic drugs. For example, FIGS. 17 and 18 depict microbes embodied by E. coli bacteria. FIG. 17 depicts the E. coli after being exposed to a dilution of the antibiotic ampicillin, while FIG. 18 depicts the E. coli free from any ampicillin exposure. […] This elongation is a precursor to the death of the bacteria and illustrates that the concentration of ampicillin is sufficient to neutralize the bacteria. FIG. 18 illustrates normal growth. It follows that the ratio between the total area occupied by all of the bacteria and the bacteria count will increase over time to represent each bacterium elongating. For example, if a particular image sample includes 100 bacteria and each bacterium measures approximately 4 pixels each, the area occupied by the 100 bacteria within the image is 400 pixels. In this image sample, the ratio of bacteria area to bacteria count is 4.0. […]

P. fluorescens [1] = assay: MIC prediction by neural network from digital microscopy of AST test wells
Excerpt: FIG. 8 provides an illustration of how data that can be used in an optimized AST method 101 can be captured from a test well. Test well 20 is embodied by a “384” style test well, having a clear viewing bottom. The volume of inoculum in test well 20 may be set to 20 microliters to reduce the amount of materials such as bulk diluents required by AST method 101 and/or minimize light artifacts and provide sampling of a consistent number of microbes from the 1:250 dilution of the 0.5 MacFarland inoculum. Decreasing the volume of inoculum in test well 20 generally increases the light artifacts. In some instances, capturing a single vertical plane 103 at 20× objective whereby AST camera 35 is set at 0.33 microns/pixel may be sufficient for sampling the inoculum and ensuring that each individual microbe is recognizable. However, these parameters are configurable and may change as desired by the user or the underlying needs of the system. Capturing three focal sites spaced about 5 microns apart within single vertical plane 103 may also provide a sufficient number of microbes in the sample to count for use in optimized AST method 101. These three focal sites are labeled site 105, site 107, and site 109 in FIG. 8. In an exemplary version of optimized AST method 101, each focal site is approximately 700×700 microns within single vertical plane 103, rather than capturing three sites in three different vertical planes. AST camera 35, optics system 9, and computer 49 are configured to capture an image of each focal site in consecutive time periods, manipulate each of these images, and thereafter use the data derived from these manipulated images to make a MIC determination. In some embodiments, to use a neural network such as illustrated in FIG. 24 to make a MIC prediction, a test well containing some concentration of an antimicrobial could be inoculated with a microorganism. Data could then be gathered by taking measurements in a manner similar to that described above in the context of the decision tree and neural network classifiers of FIGS. 20-23B and 25. These measurements, along with the identity and concentration of the antimicrobial in the test well could then be provided as inputs to the neural network's input nodes. The values provided on the network's output nodes could then be treated as indications of the likelihood that the concentrations corresponding to the output nodes were the MIC for the microorganism added to the test well. For example, when using a network which had been trained to provide a likelihood that a first concentration is the MIC on a first output node, a likelihood that a second concentration is the MIC on a second output node, and a likelihood that a third concentration is the MIC on a third output node, the concentration corresponding to the output node with the highest value (which might not be the same as the concentration of the antimicrobial in the test well from which the data was gathered) could be treated as the MIC. In some embodiments, rather than using values of the output nodes of a network such as shown in FIG. 24 as directly indicating the MIC, values from such output nodes may be used as inputs to another function that would provide a (potentially more reliable) MIC value. For example, in some embodiments, separate sets of measurements could be gathered from each of a plurality of test wells having different concentrations of the same antimicrobial, and those sets of measurements could each be provided as input to a neural network such as illustrated in FIG. 24. Each of those neural networks would then provide a prediction of the most likely MIC, and those predictions could be provided as input to another function (e.g., a statistical function, such as a mode or median identification function) that would provide a prediction that would be treated as the true MIC for the sample.

P. fluorescens [2] = assay: Actual MIC (reference read after full growth period)
Procedure: In AST testing, a plurality of test wells are filled with inoculum and increasing concentrations of a number of different antimicrobial agents, for example antibiotics. The different antimicrobial agents may be diluted in a growth medium or liquid medium to concentrations that include those of clinical interest. After incubation, the turbidity will be increased or unchanged in test wells where growth has not been inhibited by the antimicrobics in those test wells. The MIC of each antimicrobial agent is measured by lack of growth with respect to each concentration of antimicrobial agent. It follows that the lowest concentration of antimicrobial agent displaying a lack of growth is the MIC. As set forth above, neural networks can be used to model growth patterns of a bacterial isolate over time at various drug concentrations. As long as the bacteria grows in the well with no drug, then a neural network can be created to use the count and area of the growth well and at the various drug concentrations to make an early prediction of the MIC. […]

| SMILES | growth morphology after exposure to a dilution of the antibiotic (E. coli bacteria) | final predicted MIC (P. fluorescens [1]; median of the predictions of the 11 drug concentration wells) | Predicted MIC (P. fluorescens [1]; prediction from test well with dilution 0.06 μg/ml) [µg/mL] | Predicted MIC (P. fluorescens [1]; prediction from test well with dilution 0.12 μg/ml) [µg/mL] | Predicted MIC (P. fluorescens [1]; prediction from test well with dilution 0.25 μg/ml) [µg/mL] | Predicted MIC (P. fluorescens [1]; prediction from test well with dilution 0.5 μg/ml) [µg/mL] | Predicted MIC (P. fluorescens [1]; prediction from test well with dilution 1 μg/ml) [µg/mL] | Predicted MIC (P. fluorescens [1]; prediction from test well with dilution 2 μg/ml) [µg/mL] | Predicted MIC (P. fluorescens [1]; prediction from test well with dilution 4 μg/ml) [µg/mL] | Predicted MIC (P. fluorescens [1]; prediction from test well with dilution 8 μg/ml) [µg/mL] | Predicted MIC (P. fluorescens [1]; prediction from test well with dilution 16 μg/ml) [µg/mL] | Predicted MIC (P. fluorescens [1]; prediction from test well with dilution 32 μg/ml) [µg/mL] | Predicted MIC (P. fluorescens [1]; prediction from test well with dilution 64 μg/ml) [µg/mL] | actual MIC (P. fluorescens [2]) |
| --- | --- | --- | --- | --- | --- | --- | --- | --- | --- | --- | --- | --- | --- | --- |
| CC1(C)S[C@@H]2[C@H](NC(=O)[C@H](N)c3ccccc3)C(=O)N2[C@H]1C(=O)O [ampicillin] | abnormal growth in the form of elongation |  |  |  |  |  |  |  |  |  |  |  |  |  |
| CC(C)(O/N=C(\C(=O)N[C@@H]1C(=O)N2C(C(=O)[O-])=C(C[n+]3ccccc3)CS[C@H]12)c1csc(N)n1)C(=O)O [Caz, Ceftazidime] |  | which in this case is 2. μg/ml | 2 | 2 | 2 | 2 | 2 | 2 | 32 | 2 | 2 | 2 | 2 | example was 2. μg/ml |
